Laboratory results taken from patent US20120225417A1, “Methods, Compositions and Kits for the Evaluation and Preservation of Sperm” (I'Alliance Boviteq Inc., priority 2011, published 2012).

Key:
Format in all cases: biochemical
[1] = test system: 3′-5′ cAMP-PDE activity in bovine cauda epididymal plasma; assay: 3′-5′ cAMP-PDE assay in bovine cauda epididymal plasma; conditions: thawed epididymal plasma 0.5 μL; Papaverine (400 μM) as printed (FIG. 5)
Description: Epididymis from sexually mature bulls was obtained from a local slaughterhouse. Immediately after slaughtering, testicles were kept on ice and brought to the laboratory within 3 hours. Epididymis was dissected and cleared from connective tissues. As already described (Frenette, G. et al., (2002). Biol Reprod 67, 308-313), fluid from the cauda epididymis was collected by retrograde flushing. Epididymal plasma was isolated according to the same centrifugations steps than the seminal plasma as described below.
(§1) The cAMP enzymatic assay (PDE assay) was conducted as previously described (Sasseville, M. et al., (2006). BMC developmental biology 6, 47). Samples were directly subjected to PDE assay. 3′-5′ cAMP-PDE activity was assessed at 34° C. in 200 μL final volume using 1 μM cAMP as substrate (Thompson, W. J. et al., (1979). Adv Cyclic Nucleotide Res 10, 69-92) with minor modifications. […] Knowing the exact concentrations of spermatozoa in each SP sample, total 3′-5′ cAMP-PDE activity was reported as the quantity of cAMP (fMol) hydrolysed per minute per the number of spermatozoa (fMol/min/10^6 spz). […] To determine which PDE family contributes to total 3′-5′ cAMP-PDE activity, the activity measured in the presence of the respective inhibitors was subtracted from the total. […]

[2] = test system: 3′-5′ cAMP-PDE activity in human seminal plasma; assay: 3′-5′ cAMP-PDE assay with family-specific PDE inhibitors in human seminal plasma; conditions: fresh human seminal plasma; Rolipram 10 μM, Papaverine 400 nM (FIG. 19)
Description: A certain amount of complete ejaculate was kept to isolate spermatozoa from seminal plasma. This portion was centrifuged at 400×g during 10 minutes at room temperature to gently pull down spermatozoa. Supernatant was transferred and centrifuged again at 6 000×g at 4° C. during 20 minutes to pull down any remaining spermatozoa. Supernatant was then transferred and centrifuged at 6 000×g at 4° C. during 20 minutes to remove any remaining debris. SP samples were kept on ice until used for PDE assay and stored at -80° C. for further characterization. The cAMP enzymatic assay (PDE assay) was conducted as previously described ([…]. et al., (2006). BMC developmental biology 6, 47). […] J. et al., (1979). Adv Cyclic Nucleotide Res 10, 69-92) with minor modifications. […] Measurements were also performed in the presence of PDE inhibitors: […] Cilostamide and Rolipram were purchased from Biomol. […] Each PDE assay was performed in triplicate for each experiment and each experiment was repeated at least three times. As described ([…]. et al., (2009). […] IBMX-sensitive PDE5 and PDE6 and IBMX-insensitive PDE9 activities are absent from these groups because cGMP is the specific substrate and then are not detected in the cAMP-PDE assay. […] J Dairy Sci 92, 3757-3765; […]., et al. (2007). Endocrinology 148, 1858-1867; Siuciak, J. A. et al., (2006). Neuropharmacology 51, 386-396).

[3] = test system: 3′-5′ cAMP-PDE activity in human spermatozoa; assay: 3′-5′ cAMP-PDE assay with family-specific PDE inhibitors in human spermatozoa; conditions: 95% fractionation method, papaverine 400 nM (FIG. 18)
Description: Ejaculates were obtained by masturbation from healthy donors after a minimum of 2 days of sexual abstinence. After ejaculation, semen was kept at room temperature to allow liquefaction. To prepare human ejaculate, three different fractionation methods were used: “G2 method”, “40-80% fractionation” or “95% fractionation”.
For “G2 method”, according to the ejaculate volume, approximately 1 ml of semen was added to 5 ml of isotonic solution: HEPES-buffered saline (HBS: 25 mM Hepes, 130 mM NaCl, 4 mM KCl, 0.5 mM MgCl2, 14 mM fructose, pH 7.6) in a 15 mL falcon tube to wash the spermatozoa from the seminal plasma. […] Then, the samples were vortex-agitated for 30 sec and kept on the ice until ready to run the assay. The concentration of sperm cells was measured according to hemacytometer method. […]
The cAMP enzymatic assay (PDE assay) was conducted as previously described (Sasseville, M. et al., (2006). BMC developmental biology 6, 47). […] 3′-5′ cAMP-PDE activity was assessed at 34° C. in 200 μL final volume using 1 μM cAMP as substrate (Thompson, W. J. et al., (1979). Adv Cyclic Nucleotide Res 10, 69-92) with minor modifications. […] Knowing the exact concentrations of spermatozoa in each SP sample, total 3′-5′ cAMP-PDE activity was reported as the quantity of cAMP (fMol) hydrolysed per minute per the number of spermatozoa (fMol/min/10^6 spz). […]

[4] = test system: 3′-5′ cAMP-PDE activity in bovine seminal plasma; assay: 3′-5′ cAMP-PDE assay with family-specific PDE inhibitors in bovine seminal plasma; conditions: thawed bovine seminal plasma, papaverine 400 nM (FIG. 8)
Description: Fresh ejaculated bovine sperm, at known concentrations, was transported for three hours at 18° C. Upon arrival specimens were centrifuged at 400×g during 10 minutes at room temperature to gently pull down spermatozoa. Supernatant was transferred and centrifuged again at 6 000×g at 4° C. during 20 minutes to pull down any remaining spermatozoa. Supernatant was then transferred and centrifuged at 6 000×g at 4° C. during 20 minutes to remove any remaining debris. Seminal plasma (SP) samples were kept on ice until used for PDE assay and stored at −80° C. for further characterization.
as §1

With COc1ccc(Cc2nccc3cc(OC)c(OC)cc23)cc1OC [Papaverine] the “Papaverine-sensitive PDE activity in bovine epididymal fluid (in words)” value [1] was “low”, the “Inhibitor-sensitive PDE activity in human seminal plasma (in words)” value [2] was “low percentage” and the “Share of cAMP-PDE activity that is papaverine-sensitive” value [3] was “more than 50%”. For the same molecule, the “Share of PDE activity in bovine seminal plasma that is papaverine-sensitive” value [4] was “more than 50%”.
